For experiment [1], the system named is glycogen synthase activity in L6 rat myocytes. The experiment is described as follows: Glycogen synthase (GS) assay in L6 rat myocytes. The experiment is classed as cell-based. The procedure: Rat skeletal muscle myoblasts L6/G8.C5 were seeded at 2.4×10^5 cells per 10 cm dish in DMEM 10% foetal calf serum (FCS), containing penicillin/streptomycin. When 90% confluence was reached the medium was exchanged with α MEM, supplemented with 2%
FCS and penicillin/streptomycin. Medium was refreshed every 48 hours and 4-7 days later the myocytes were formed.
Cells on 10 cm dishes (Human Embryonic Kidney (HEK) 293 cells, L6 rat myocytes, or 3T3 mouse adipocytes) were treated with different concentrations of GSK3-inhibitors or DMSO vehicle for 90 min. […] Lysates were assayed for glycogen synthase activity in buffer (50 mM Tris-HCl, pH 7.8, 20 mM EDTA, 25 mM NaF, 5 mM DTT, 1% glycogen, 0.3 mM UDP-glucose and 0.06 μCi of [^14C]-UDP-glucose in the presence of 0.1 or 10 mM glucose-6-phosphate. The reaction was carried out for 30 min at 30° C. 70 μL of the reaction mixture (total volume 90 μL) were transferred to a GFC 96-well filter plate (bottom sealed with foil), containing 140 μL 96% ethanol. The GFC plate was incubated for 1 h on ice and than washed with 66% ethanol. To each well 100 μL scintillant liquid was added and the radioactivity of the samples was measured using a scintillation counter (Topcount, HP). Data are expressed as -fold increase in glycogen synthase activity ratios over those of control samples.

The subject of the next experiment is Lck. The experiment is described as follows: Protein kinase panel selectivity screen, Lck. Format: biochemical. As to conditions: 1 μM compound; [ATP] 50 μM. The protocol:
(§1) The names of the 29 kinases comprising the selectivity screen, as well as the ATP concentrations used in each kinase case, are given in Table 5. The kinase assays were carried out as described previously.
(§2) Compound XIV at a concentration of 1 μM was screened in the 29-kinase panel (Dundee University) and the results are shown bellow in Table 6.

For another experiment, the target named is T1, CDK9/cyclin T1 (Homo sapiens, UniProt P50750).
T1 construct: His6 (N); made in house; host or cells: Sf9 insect cells (baculovirus)
T1 sequence (P50750 whole entry, species assumed): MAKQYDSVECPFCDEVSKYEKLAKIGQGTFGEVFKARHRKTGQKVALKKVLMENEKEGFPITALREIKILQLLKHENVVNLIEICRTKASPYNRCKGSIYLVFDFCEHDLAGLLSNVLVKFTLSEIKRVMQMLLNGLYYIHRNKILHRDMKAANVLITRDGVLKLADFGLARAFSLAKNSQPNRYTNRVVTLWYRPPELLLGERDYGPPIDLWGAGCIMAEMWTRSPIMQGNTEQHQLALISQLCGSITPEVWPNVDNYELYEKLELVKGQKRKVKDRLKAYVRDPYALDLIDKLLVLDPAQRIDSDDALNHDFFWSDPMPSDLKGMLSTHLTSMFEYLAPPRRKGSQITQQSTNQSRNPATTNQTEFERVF
T1 sequence (O60563 whole entry partner, species assumed): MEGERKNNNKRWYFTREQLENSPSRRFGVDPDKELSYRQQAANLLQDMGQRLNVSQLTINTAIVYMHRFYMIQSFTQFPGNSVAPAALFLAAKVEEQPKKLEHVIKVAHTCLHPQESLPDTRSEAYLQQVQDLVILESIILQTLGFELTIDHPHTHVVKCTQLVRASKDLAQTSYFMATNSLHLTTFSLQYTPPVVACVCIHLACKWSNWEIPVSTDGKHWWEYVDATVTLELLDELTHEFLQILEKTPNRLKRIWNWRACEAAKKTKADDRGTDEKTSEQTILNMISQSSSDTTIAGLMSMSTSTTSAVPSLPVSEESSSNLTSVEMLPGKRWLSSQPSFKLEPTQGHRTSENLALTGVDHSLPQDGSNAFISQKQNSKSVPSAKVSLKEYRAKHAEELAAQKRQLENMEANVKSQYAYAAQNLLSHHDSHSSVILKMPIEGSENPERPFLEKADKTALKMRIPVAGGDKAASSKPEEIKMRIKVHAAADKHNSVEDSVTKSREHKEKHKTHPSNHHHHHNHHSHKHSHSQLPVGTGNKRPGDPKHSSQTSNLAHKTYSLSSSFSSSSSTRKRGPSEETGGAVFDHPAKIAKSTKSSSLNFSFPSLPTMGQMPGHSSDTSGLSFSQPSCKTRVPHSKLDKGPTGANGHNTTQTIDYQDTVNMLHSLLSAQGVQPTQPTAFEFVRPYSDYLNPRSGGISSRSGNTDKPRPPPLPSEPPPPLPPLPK
The experiment in a line: CDK9/cyclin T1 inhibition constant. Format: biochemical. The procedure: (§3) CDK4/cyclin D1, CDK1/cyclin B, CDK2/cyclin E, CDK2/cyclin A, CDK9/cyclin T1 and CDK7/cyclin H, all with a His6 tag on the N-terminus, were expressed in Sf9 insect cells using an appropriate baculovirus construct. Sf9 culture (1.6×10^6 cells/mL) was infected (MOI of 3) for two days. The cells were harvested by low speed centrifugation and the protein was purified from the insect cell pellet by metal affinity chromatography. In short: the insect cell pellet was lysed in Buffer A (10 mM Tris-HCl pH 8.0, 150 mM NaCl, 0.02% NP-40, 5 mM β-mercaptoethanol, 20 mM NaF, 1 mM Na3VO4, and Sigma Protease Inhibitor Cocktail) by sonication. The soluble fraction was cleared by centrifugation and loaded onto Ni-NTA-Agarose (Qiagen). Non-bound protein was washed off with 300 mM NaCl, 5-15 mM imidazole in buffer A and the bound protein was eluted with buffer A supplemented with 250 mM imidazole. The purified proteins were extensively dialyzed against storage buffer (20 mM HEPES pH 7.4, 50 mM NaCl, 2 mM DTT, 1 mM EDTA, 1 mM EGTA, 0.02% NP-40, 10% v/v glycerol) and stored at −70° C.
(§4) Intrinsic inhibition constants (Ki) for example compound XIV against a number of Ser/Thr kinases were determined and are summarized in Table 3.

The test system of the next experiment is p70S6K. The experiment in a line: Protein kinase panel selectivity screen, p70S6K. As to conditions: 1 μM compound; [ATP] 20 μM. The experiment is classed as biochemical. The protocol: as §1, §2
The next experiment concerns the target T2, SGK (Homo sapiens, UniProt O00141).
T2 construct: Dundee University (panel)
The experiment in a line: Protein kinase panel selectivity screen, SGK. Conditions: 1 μM compound; [ATP] 20 μM. The experiment is classed as biochemical. The procedure:
as §1, §2

Another experiment has as its system ROCK-II. The experiment in a line: Protein kinase panel selectivity screen, ROCK-II. The experiment is classed as biochemical. Conditions: 1 μM compound; [ATP] 20 μM. The procedure: as §1, §2
A further experiment has as its target T3, SAPK3/p38g (Homo sapiens, UniProt P53778).
T3 construct: Dundee University (panel)
The experiment is described as follows: Protein kinase panel selectivity screen, SAPK3/p38g. Format: biochemical. Conditions: 1 μM compound; [ATP] 5 μM. The procedure:
as §1, §2

A further experiment concerns the target T4, CSK (Homo sapiens, UniProt P41240).
T4 construct: Dundee University (screening panel)
The experiment in a line: Protein kinase panel selectivity screen, CSK. Conditions: 1 μM compound; [ATP] 20 μM. Format: biochemical. The procedure: as §1, §2

The target in the next experiment is T5, SAPK2a/p38 (Homo sapiens, UniProt Q16539).
T5 construct: Dundee University (panel)
T5 sequence (Q16539 whole entry): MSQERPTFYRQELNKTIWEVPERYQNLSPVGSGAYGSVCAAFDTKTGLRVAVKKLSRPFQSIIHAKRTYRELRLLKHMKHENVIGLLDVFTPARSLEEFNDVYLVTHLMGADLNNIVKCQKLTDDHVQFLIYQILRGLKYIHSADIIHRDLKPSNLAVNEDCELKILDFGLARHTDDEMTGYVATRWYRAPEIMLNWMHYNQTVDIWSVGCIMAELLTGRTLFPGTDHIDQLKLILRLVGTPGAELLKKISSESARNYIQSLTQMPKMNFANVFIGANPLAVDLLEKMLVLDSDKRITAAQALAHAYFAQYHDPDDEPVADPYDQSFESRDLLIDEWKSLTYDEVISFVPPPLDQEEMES
The experiment is described as follows: Protein kinase panel selectivity screen, SAPK2a/p38. Format: biochemical. Conditions: 1 μM compound; [ATP] 50 μM. The procedure: as §1, §2

The next experiment deals with T6, MAPKAP-K2 (Homo sapiens, UniProt P49137).
T6 construct: Dundee University (panel)
T6 sequence (P49137 whole entry, species assumed): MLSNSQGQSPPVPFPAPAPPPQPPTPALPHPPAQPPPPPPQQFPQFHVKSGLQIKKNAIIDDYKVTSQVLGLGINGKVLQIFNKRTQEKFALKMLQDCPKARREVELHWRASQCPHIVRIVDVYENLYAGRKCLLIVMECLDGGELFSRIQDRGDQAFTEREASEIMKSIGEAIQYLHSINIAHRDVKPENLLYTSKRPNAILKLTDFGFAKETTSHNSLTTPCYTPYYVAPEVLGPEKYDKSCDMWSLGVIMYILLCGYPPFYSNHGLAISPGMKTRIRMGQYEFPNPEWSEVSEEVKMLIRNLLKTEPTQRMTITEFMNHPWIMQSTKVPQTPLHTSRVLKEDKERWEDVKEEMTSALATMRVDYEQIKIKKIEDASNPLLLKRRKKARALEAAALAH
The experiment in a line: Protein kinase panel selectivity screen, MAPKAP-K2. As to conditions: 1 μM compound; [ATP] 20 μM. Format: biochemical. The procedure: as §1, §2

A further experiment addresses T7, PKCa (Homo sapiens, UniProt P17252).
T7 construct: Dundee University (panel)
The experiment in a line: Protein kinase panel selectivity screen, PKCa. The experiment is classed as biochemical. As to conditions: 1 μM compound; [ATP] 20 μM. The protocol: as §1, §2

A further experiment has as its target T8, MSK1 (Homo sapiens, UniProt O75582).
T8 construct: Dundee University (panel)
The experiment in a line: Protein kinase panel selectivity screen, MSK1. The experiment is classed as biochemical. As to conditions: 1 μM compound; [ATP] 20 μM. The procedure: as §1, §2

The target of a further experiment is T9, CDK7/cyclin H (Homo sapiens, UniProt P50613).
T9 construct: His6 (N); made in house; host or cells: Sf9 insect cells (baculovirus)
T9 sequence (P50613 whole entry, species assumed): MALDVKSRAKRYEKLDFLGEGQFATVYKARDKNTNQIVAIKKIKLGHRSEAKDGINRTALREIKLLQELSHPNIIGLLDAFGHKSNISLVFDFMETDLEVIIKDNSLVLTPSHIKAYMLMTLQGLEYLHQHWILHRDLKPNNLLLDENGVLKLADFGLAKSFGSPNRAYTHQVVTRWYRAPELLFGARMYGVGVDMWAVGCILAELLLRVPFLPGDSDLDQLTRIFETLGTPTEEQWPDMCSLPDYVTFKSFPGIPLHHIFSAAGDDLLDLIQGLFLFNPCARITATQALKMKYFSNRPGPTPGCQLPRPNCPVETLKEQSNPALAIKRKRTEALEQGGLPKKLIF
T9 sequence (P51946 whole entry partner, species assumed): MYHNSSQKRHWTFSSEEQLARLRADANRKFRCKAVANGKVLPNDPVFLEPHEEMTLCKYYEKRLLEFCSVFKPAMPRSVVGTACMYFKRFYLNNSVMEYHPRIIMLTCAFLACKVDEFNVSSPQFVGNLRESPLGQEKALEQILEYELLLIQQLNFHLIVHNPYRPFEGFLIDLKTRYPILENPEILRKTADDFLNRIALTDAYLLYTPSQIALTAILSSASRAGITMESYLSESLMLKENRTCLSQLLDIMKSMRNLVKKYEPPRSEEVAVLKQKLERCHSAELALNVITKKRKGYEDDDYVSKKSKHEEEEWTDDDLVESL
The experiment is described as follows: CDK7/cyclin H inhibition constant. Format: biochemical. The procedure:
as §3, §4

Another experiment deals with T10, MAPK2/ERK2 (Homo sapiens, UniProt P28482).
T10 construct: Dundee University (panel)
The experiment in a line: Protein kinase panel selectivity screen, MAPK2/ERK2. Format: biochemical. As to conditions: 1 μM compound; [ATP] 50 μM. The procedure: as §1, §2

Each structure is given as a SMILES string.

T4 sequence (P41240 whole entry, species assumed): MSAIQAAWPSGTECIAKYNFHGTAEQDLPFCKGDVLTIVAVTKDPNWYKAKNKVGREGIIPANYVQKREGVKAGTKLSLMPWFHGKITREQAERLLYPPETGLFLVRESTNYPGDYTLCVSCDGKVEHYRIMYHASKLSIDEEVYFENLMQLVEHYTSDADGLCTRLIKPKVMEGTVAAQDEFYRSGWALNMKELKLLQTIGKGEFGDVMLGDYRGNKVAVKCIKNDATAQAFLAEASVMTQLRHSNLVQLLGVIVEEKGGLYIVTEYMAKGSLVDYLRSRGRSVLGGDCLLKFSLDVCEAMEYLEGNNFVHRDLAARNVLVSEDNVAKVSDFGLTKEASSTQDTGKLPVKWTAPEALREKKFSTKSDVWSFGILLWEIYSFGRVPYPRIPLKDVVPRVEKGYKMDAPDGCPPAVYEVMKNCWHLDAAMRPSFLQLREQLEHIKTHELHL
T8 sequence (O75582 whole entry, species assumed): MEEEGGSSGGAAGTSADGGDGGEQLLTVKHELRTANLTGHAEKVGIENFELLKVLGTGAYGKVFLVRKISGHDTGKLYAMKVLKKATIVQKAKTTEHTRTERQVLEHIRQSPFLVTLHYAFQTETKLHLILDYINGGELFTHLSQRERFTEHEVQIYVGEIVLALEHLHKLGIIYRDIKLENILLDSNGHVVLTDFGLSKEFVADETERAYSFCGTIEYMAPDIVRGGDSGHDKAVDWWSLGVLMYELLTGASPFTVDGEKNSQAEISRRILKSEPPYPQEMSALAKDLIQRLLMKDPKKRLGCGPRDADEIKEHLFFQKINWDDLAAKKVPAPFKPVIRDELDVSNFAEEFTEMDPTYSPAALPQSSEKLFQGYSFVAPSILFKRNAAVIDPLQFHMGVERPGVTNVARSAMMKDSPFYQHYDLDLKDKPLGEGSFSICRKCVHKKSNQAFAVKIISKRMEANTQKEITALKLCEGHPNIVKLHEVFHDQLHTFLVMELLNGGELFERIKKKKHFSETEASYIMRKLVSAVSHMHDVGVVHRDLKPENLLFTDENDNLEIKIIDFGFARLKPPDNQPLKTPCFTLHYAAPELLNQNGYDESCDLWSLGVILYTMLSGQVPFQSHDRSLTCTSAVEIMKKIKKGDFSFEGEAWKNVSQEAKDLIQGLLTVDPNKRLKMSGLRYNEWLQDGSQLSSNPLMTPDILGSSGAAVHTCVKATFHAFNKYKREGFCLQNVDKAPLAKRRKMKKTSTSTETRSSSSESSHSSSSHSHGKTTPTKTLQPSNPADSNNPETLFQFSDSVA
T2 sequence (O00141 whole entry, species assumed): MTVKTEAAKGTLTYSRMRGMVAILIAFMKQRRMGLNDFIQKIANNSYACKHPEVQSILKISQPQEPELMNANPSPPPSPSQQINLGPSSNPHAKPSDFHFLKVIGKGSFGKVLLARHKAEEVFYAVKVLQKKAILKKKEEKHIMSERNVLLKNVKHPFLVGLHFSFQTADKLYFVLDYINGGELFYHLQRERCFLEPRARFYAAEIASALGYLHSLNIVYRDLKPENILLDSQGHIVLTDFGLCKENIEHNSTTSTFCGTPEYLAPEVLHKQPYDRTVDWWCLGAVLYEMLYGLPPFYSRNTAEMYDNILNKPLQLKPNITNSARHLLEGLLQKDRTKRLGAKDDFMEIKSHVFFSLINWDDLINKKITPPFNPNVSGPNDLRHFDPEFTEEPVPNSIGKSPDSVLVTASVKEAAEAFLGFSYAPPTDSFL

On to `Clc1ccc(Nc2nccc(-c3nccs3)n2)cn1` [Compound XIV, (6-Chloro-pyridin-3-yl)-(4-thiazol-2-yl-pyrimidin-2-yl)-amine], for which the 50% effective concentration (EC50) in experiment [1] (Rattus norvegicus, L6 myocytes, from dose-response curves, read-out: EC50 activation of glycogen synthase) came out at 4 ± 1.5 µM. Besides, the “Activity of glycogen synthase (fractional velocity)” value in [1] (rat myocyte cells, ratio of activity at 0.1 and 10 mM glucose-6-phosphate) was “increased the activity of glycogen synthase”. The “% Activity Lck” value with Lck is reported as 66 ± 5%. Moreover, the results for the Ki at CDK9/cyclin T1 and on CDK7/cyclin H were 0.5 µM and above 50 µM, respectively. Further, the “Fold selectivity for GSK3 over CDK9/cyclin T1” value at CDK9/cyclin T1 (from Ki) worked out at 31 fold. The “% Activity p70S6K” value in the experiment on p70S6K was 91 ± 2%. The activity at 1 µM on SGK is 79 ± 4%; at SAPK3/p38g, 88 ± 3%; at CSK, 93 ± 8%; at SAPK2a/p38, 84 ± 7%; on MAPKAP-K2, 86 ± 7%; on PKCa, 76%. In addition, the results for the activity at 1 µM on MSK1 and on MAPK2/ERK2 were 90 ± 6% and 84 ± 8%, respectively. For the same molecule, in the experiment on ROCK-II, the “% Activity ROCK-II” value turned out to be 87 ± 6%. Also, the “Fold selectivity for GSK3 over CDK7/cyclin H” value on CDK7/cyclin H (from Ki) is >3,125 fold.
